According to patent US20040151761A1, “Methods and compositions utilizing astaxanthin” (priority 2003, published 2004):
Entries after “also recorded” stand apart in the source; their conditions may differ.

Columns and labels:
[1] = test system: peripheral blood mononuclear cell (PBMC); assay: Lymphoproliferation in dogs (whole blood cultures); type: in vivo, dog
Protocol: Lyniphoproliferation. The proliferation response of peripheral blood mononuclear cell (PBMC) to PHA (2 and 10 mg/L final concentration), concanavalin A (Con A; 1 and 5 mg/L), and pokeweed mitogen (PWM; 0.25 and 1.25 mg/L) was assessed on week 0, 6, 12 and 16 using whole blood cultures (Chew et al., 2000). Whole blood was cultured in order to mimic in vivo conditions.

[2] = test system: cutaneous delayed-type hypersensitivity (DTH); assay: Delayed-type hypersensitivity (skin induration) in dogs; type: in vivo, dog
Protocol: Female Beagle dogs (9 to 10 mo old; 8.2±0.2 kg body weight; Covance Research Products Inc., Kalamazoo, Mich.) were randomly assigned (n=14/treatment) to be fed 0, 10, 20, or 40 mg astaxanthin (109 g astaxanthin/kg oleoresin concentrate from Haematococcus pluvialis, astraZanthin™, La Haye Laboratories, Redmond, Wash.) daily for 16 weeks. Astaxanthin was incorporated into a commercial basal diet (The Iams Co., Lewisburg, Ohio.) and fed two times daily (200 g food/d). […] Blood was collected on wk 0, 6 and 12 for assessing immune function. All dogs were vaccinated (Vanguard 5™, Smithkline Beacham, West Chester, Pa.) twice on week 12 and 14 and blood again taken on week 16 to assess post-vaccination immune responses.
On week 12 (before vaccination) and 16 (after vaccination), all dogs were injected intradermally with 100 microliters of (1) saline (8.5 g/L; negative control), (2) an attenuated polyvalent vaccine containing canine distemper virus, adenovirus type-2, parainfluenza virus and parvovirus (undiluted; Vanguard 5™, Smithkline Beacham, West Chester, Pa.), and (3) phytohemagglutinin (PHA, 0.5 g/L) as previously described (Chew et al., 2000) to assess cutaneous delayed-type hypersensitivity (DTH). Skin induration was measured at 0, 24, 48 and 72 hours post-injection.

CC1=C(/C=C/C(C)=C/C=C/C(C)=C/C=C/C=C(C)/C=C/C=C(C)/C=C/C2=C(C)C(=O)C(O)CC2(C)C)C(C)(C)CC(O)C1=O (stereo not drawn) [astaxanthin, 3,3′-dihydroxy-beta, beta-carotene-4,4′-dione]
con A-induced PBMC proliferation ([1]; 20 mg, week 12): higher con A-induced PBMC proliferation than un-supplemented dogs; also recorded: highest blastogenic response | PHA-stimulated PBMC proliferation ([1]; all time periods): did not influence | PWM-stimulated PBMC proliferation ([1]; all time periods): did not influence | time after intradermal challenge at which skin induration response was observed ([2]; before vaccination): 48 h | DTH response to PHA ([2]; nonspecific antigen): No similar response was observed; also recorded: but not to PHA | time after intradermal challenge at which skin induration response was observed ([2]; post-vaccination): 24 h | DTH response compared with other carotenoids previously investigated ([2]; versus β-carotene and lutein in dogs): heightened DTH response | skin induration response to saline, PHA or vaccine ([2]; wk 0 and 8): did not significantly influence | DTH response to intradermal vaccine challenge ([2]; wk 12 (before vaccination), dogs fed 10, 20 and 30 mg (10 to 40 mg)): significant DTH response to vaccine; also recorded: higher DTH response at 38 and 72 h; also recorded: increased delayed-type hypersensitivity (DTH) response | DTH response to intradermal vaccine challenge ([2]; wk 16, after vaccination on wk 12 and 14): observed earlier (at 24 and 38 h); also recorded: similarly enhanced
